According to PubChem BioAssay AID2060504 (Molecular Pharmacology Branch, DTP, NCI, 2025):
Blank lines part the entries; values can stand above or below the compound they belong to.

Test system: 636577-100-R-J1-PDC complex spheroid viability
Test: Anticancer human tumor 636577-100-R-J1-PDC patient-derived endometrial adenocarcinoma cell line growth inhibition [GQUAD]
Conditions: for IC50: curve of first compound; for viability, T/C: stronger effect = lower value
Outline: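 Multi-cell-type spheroids of tumor cells with HUVEC and mesenchymal stem cells, treated with drug combinations. Concentrations descend in half-log steps from near clinical Cmax, or from 10 microM where Cmax is unknown; viability read-out.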

[1] = second compound 0.0316 µM, first compound 0.0316 µM
[2] = second compound 0.0316 µM, first compound 0.1 µM
[3] = second compound 0.0316 µM, first compound 0.316 µM
[4] = second compound 0.0316 µM, first compound 1 µM
[5] = second compound 0.0316 µM, first compound 3.16 µM
[6] = second compound 0.0316 µM, first compound 10 µM
[7] = second compound 0.1 µM, first compound 0.0316 µM
[8] = second compound 0.1 µM, first compound 0.1 µM
[9] = second compound 0.1 µM, first compound 0.316 µM
[10] = second compound 0.1 µM, first compound 1 µM
[11] = second compound 0.1 µM, first compound 3.16 µM
[12] = second compound 0.1 µM, first compound 10 µM
[13] = second compound 0.316 µM, first compound 0.0316 µM
[14] = second compound 0.316 µM, first compound 0.1 µM
[15] = second compound 0.316 µM, first compound 0.316 µM
[16] = second compound 0.316 µM, first compound 1 µM
[17] = second compound 0.316 µM, first compound 3.16 µM
[18] = second compound 0.316 µM, first compound 10 µM
[19] = second compound 1 µM, first compound 0.0316 µM
[20] = second compound 1 µM, first compound 0.1 µM
[21] = second compound 1 µM, first compound 0.316 µM
[22] = second compound 1 µM, first compound 1 µM
[23] = second compound 1 µM, first compound 3.16 µM
[24] = second compound 1 µM, first compound 10 µM
[25] = second compound 3.16 µM, first compound 0.0316 µM
[26] = second compound 3.16 µM, first compound 0.1 µM
[27] = second compound 3.16 µM, first compound 0.316 µM
[28] = second compound 3.16 µM, first compound 1 µM
[29] = second compound 3.16 µM, first compound 3.16 µM
[30] = second compound 3.16 µM, first compound 10 µM
[31] = second compound 10 µM, first compound 0.0316 µM
[32] = second compound 10 µM, first compound 0.1 µM
[33] = second compound 10 µM, first compound 0.316 µM
[34] = second compound 10 µM, first compound 1 µM
[35] = second compound 10 µM, first compound 3.16 µM
[36] = second compound 10 µM, first compound 10 µM
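Also: viability read after seven days of drug exposure.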
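For viability, T/C in this document: luminescence signal used as a proxy for viable cells; 100% = DMSO vehicle control wells.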

- IC50 (second compound 0.0316 µM): < 31.6 nM
- IC50 (second compound 0.1 µM): < 31.6 nM
- IC50 (second compound 0.316 µM): < 31.6 nM
- IC50 (second compound 1 µM): < 31.6 nM
- IC50 (second compound 3.16 µM): < 31.6 nM
- IC50 (second compound 10 µM): < 31.6 nM
Structure (SMILES): COc1ncnc(C2CC2)c1-c1ncc2cnn(Cc3ccc(-c4nc(C(F)(F)F)cn4C(C)C)cc3)c2n1 + Cc1cnc(CNC(=O)c2c(=O)c3ccc(N4CCCN(C)CC4)nc3n3c2sc2ccccc23)cn1
- viability, T/C [1]: 37.8%
- viability, T/C [2]: 36%
- viability, T/C [3]: 42.7%
- viability, T/C [4]: 32.1%
- viability, T/C [5]: 37.7%
- viability, T/C [6]: 31.4%
- viability, T/C [7]: 29.7%
- viability, T/C [8]: 26.2%
- viability, T/C [9]: 29.4%
- viability, T/C [10]: 25.2%
- viability, T/C [11]: 28%
- viability, T/C [12]: 27.4%
- viability, T/C [13]: 24.2%
- viability, T/C [14]: 24.7%
- viability, T/C [15]: 25.8%
- viability, T/C [16]: 21.6%
- viability, T/C [17]: 25.2%
- viability, T/C [18]: 24.5%
- viability, T/C [19]: 19.5%
- viability, T/C [20]: 18.5%
- viability, T/C [21]: 22%
- viability, T/C [22]: 20.4%
- viability, T/C [23]: 25.4%
- viability, T/C [24]: 22.6%
- viability, T/C [25]: 16.3%
- viability, T/C [26]: 21.4%
- viability, T/C [27]: 22.7%
- viability, T/C [28]: 17.4%
- viability, T/C [29]: 25.9%
- viability, T/C [30]: 19.2%
- viability, T/C [31]: 20.8%
- viability, T/C [32]: 20%
- viability, T/C [33]: 23.5%
- viability, T/C [34]: 18.3%
- viability, T/C [35]: 23.7%
- viability, T/C [36]: 22%

Structure (SMILES): CC1COCCN1c1cc(C2(S(C)(=N)=O)CC2)nc(-c2ccnc3[nH]ccc23)n1 (stereo not drawn) + Cc1[nH]c2ccc(F)cc2c1-c1nc2c3cccnc3c3ncccc3c2[nH]1
- IC50 (second compound 0.0316 µM): 1180 nM
- IC50 (second compound 0.1 µM): 652 nM
- IC50 (second compound 0.316 µM): 678 nM
- IC50 (second compound 1 µM): 501 nM
- IC50 (second compound 3.16 µM): < 31.6 nM
- IC50 (second compound 10 µM): 394 nM
- viability, T/C [1]: 57.4%
- viability, T/C [2]: 83.1%
- viability, T/C [3]: 94.3%
- viability, T/C [4]: 54.7%
- viability, T/C [5]: 27.9%
- viability, T/C [6]: 15.1%
- viability, T/C [7]: 93.4%
- viability, T/C [8]: 72%
- viability, T/C [9]: 64.8%
- viability, T/C [10]: 43.1%
- viability, T/C [11]: 27.2%
- viability, T/C [12]: 15.7%
- viability, T/C [13]: 51.2%
- viability, T/C [14]: 101%
- viability, T/C [15]: 63.3%
- viability, T/C [16]: 40.4%
- viability, T/C [17]: 23.5%
- viability, T/C [18]: 12.2%
- viability, T/C [19]: 50.7%
- viability, T/C [20]: 77.8%
- viability, T/C [21]: 60.8%
- viability, T/C [22]: 33.2%
- viability, T/C [23]: 22.3%
- viability, T/C [24]: 12.8%
- viability, T/C [25]: 28.7%
- viability, T/C [26]: 49%
- viability, T/C [27]: 31%
- viability, T/C [28]: 23.1%
- viability, T/C [29]: 15.9%
- viability, T/C [30]: 9.24%
- viability, T/C [31]: 46%
- viability, T/C [32]: 59.8%
- viability, T/C [33]: 56.5%
- viability, T/C [34]: 32.5%
- viability, T/C [35]: 18.6%
- viability, T/C [36]: 12.9%

Structure (SMILES): Nc1ccn(C2OC(CO)C(O)C2(F)F)c(=O)n1 (stereo not drawn) + CN(C)c1ccc(Nc2c3ccc(NC(=O)CCN4CCCC4)cc3nc3cc(NC(=O)CCN4CCCC4)ccc23)cc1
- IC50 (second compound 0.0316 µM): < 31.6 nM
- IC50 (second compound 0.1 µM): < 31.6 nM
- IC50 (second compound 0.316 µM): < 31.6 nM
- IC50 (second compound 1 µM): < 31.6 nM
- IC50 (second compound 3.16 µM): < 31.6 nM
- IC50 (second compound 10 µM): < 31.6 nM
- viability, T/C [1]: 17.7%
- viability, T/C [2]: 13.4%
- viability, T/C [3]: 14.6%
- viability, T/C [4]: 17.2%
- viability, T/C [5]: 16.4%
- viability, T/C [6]: 15.8%
- viability, T/C [7]: 17.7%
- viability, T/C [8]: 14.2%
- viability, T/C [9]: 14.9%
- viability, T/C [10]: 14.3%
- viability, T/C [11]: 14.5%
- viability, T/C [12]: 18.5%
- viability, T/C [13]: 16.9%
- viability, T/C [14]: 11.2%
- viability, T/C [15]: 14.2%
- viability, T/C [16]: 17.4%
- viability, T/C [17]: 16.4%
- viability, T/C [18]: 15.6%
- viability, T/C [19]: 15.9%
- viability, T/C [20]: 16.7%
- viability, T/C [21]: 15.2%
- viability, T/C [22]: 17.8%
- viability, T/C [23]: 16.5%
- viability, T/C [24]: 17.1%
- viability, T/C [25]: 16.6%
- viability, T/C [26]: 13.9%
- viability, T/C [27]: 15.2%
- viability, T/C [28]: 14.8%
- viability, T/C [29]: 16.3%
- viability, T/C [30]: 14.5%
- viability, T/C [31]: 3.38%
- viability, T/C [32]: 3.05%
- viability, T/C [33]: 4%
- viability, T/C [34]: 3.42%
- viability, T/C [35]: 3.65%
- viability, T/C [36]: 3.14%

- IC50 (second compound 0.0316 µM): 239 nM
- IC50 (second compound 0.1 µM): < 31.6 nM
- IC50 (second compound 0.316 µM): < 31.6 nM
- IC50 (second compound 1 µM): < 31.6 nM
- IC50 (second compound 3.16 µM): < 31.6 nM
- IC50 (second compound 10 µM): < 31.6 nM
Structure (SMILES): CC1COCCN1c1cc(C2(S(C)(=N)=O)CC2)nc(-c2ccnc3[nH]ccc23)n1 (stereo not drawn) + Cc1cnc(CNC(=O)c2c(=O)c3ccc(N4CCCN(C)CC4)nc3n3c2sc2ccccc23)cn1
- viability, T/C [1]: 56.2%
- viability, T/C [2]: 50%
- viability, T/C [3]: 54.1%
- viability, T/C [4]: 30.5%
- viability, T/C [5]: 45.3%
- viability, T/C [6]: 12.3%
- viability, T/C [7]: 30.8%
- viability, T/C [8]: 29.6%
- viability, T/C [9]: 33.5%
- viability, T/C [10]: 21.7%
- viability, T/C [11]: 27.5%
- viability, T/C [12]: 12.2%
- viability, T/C [13]: 23.4%
- viability, T/C [14]: 24.4%
- viability, T/C [15]: 25.2%
- viability, T/C [16]: 22%
- viability, T/C [17]: 24.2%
- viability, T/C [18]: 14.5%
- viability, T/C [19]: 21.1%
- viability, T/C [20]: 22.7%
- viability, T/C [21]: 21.8%
- viability, T/C [22]: 18.3%
- viability, T/C [23]: 24.8%
- viability, T/C [24]: 9.7%
- viability, T/C [25]: 18.5%
- viability, T/C [26]: 18.5%
- viability, T/C [27]: 21.2%
- viability, T/C [28]: 19.4%
- viability, T/C [29]: 21.5%
- viability, T/C [30]: 14.3%
- viability, T/C [31]: 16.9%
- viability, T/C [32]: 22.2%
- viability, T/C [33]: 23.4%
- viability, T/C [34]: 22.7%
- viability, T/C [35]: 23%
- viability, T/C [36]: 13.2%
